We go through 18 molecules from US9090605B2, “Substituted 5-,6- and 7-membered heterocycles, medicaments containing such compounds, and their use” (Vitae Pharmaceuticals, Inc., priority 2010, dated 2015).

As usually defined, the IC50 is the concentration needed to halve the response being measured.

The experiment deals with 11β-HSD1 (Homo sapiens, UniProt P28845). Kind of experiment: Inhibition of a microsomal preparation of 11β-HSD1, scintillation proximity assay, microsomes from CHO cells overexpressing human 11β-HSD1 (biological test example 2). The note with it: microsomes from CHO cells overexpressing human 11β-HSD1, SPA, [3H]cortisone, 90 minutes at room temperature; read-out: IC50, inhibitory activity on 11β-HSD 1. The class given is biochemical. Also on record: expressed in transfected cells; host or cells: CHO cells (microsomes isolated from them). The protocol: All reactions were carried out at room temperature in 96 well clear flexible PET Microbeta plates (PerkinElmer). The assay begins by dispensing 49 μl of substrate solution [50 mM HEPES, pH 7.4, 100 mM KCl, 5 mM NaCl, 2 mM MgCl2, 2 mM NADPH and 160 nM [^3H]cortisone (1 Ci/mmol)] and mixing in 1 μL of the test compounds in dimethyl sulfoxide previously diluted in half-log increments (8 points) starting at 0.1 mM. After a 10 minute pre-incubation, 50 μL of enzyme solution containing microsomes isolated from CHO cells overexpressing human 11β-HSD1 (10-20 μg/ml of total protein) was added, and the plates were incubated for 90 minutes at room temperature. The reaction was stopped by adding 50 μl of the SPA beads suspension containing 10 μM 18β-glycyrrhetinic acid, 5 mg/ml protein A coated YSi SPA beads (GE Healthcare) and 3.3 μg/ml of anti-cortisol antibody (East Coast Biologics) in Superblock buffer (Bio-Rad). The plates were shaken for 120 minutes at room temperature, and the SPA signal corresponding to [^3H]cortisol was measured on a Microbeta plate reader.
Chain of 11β-HSD1 (P28845 whole entry): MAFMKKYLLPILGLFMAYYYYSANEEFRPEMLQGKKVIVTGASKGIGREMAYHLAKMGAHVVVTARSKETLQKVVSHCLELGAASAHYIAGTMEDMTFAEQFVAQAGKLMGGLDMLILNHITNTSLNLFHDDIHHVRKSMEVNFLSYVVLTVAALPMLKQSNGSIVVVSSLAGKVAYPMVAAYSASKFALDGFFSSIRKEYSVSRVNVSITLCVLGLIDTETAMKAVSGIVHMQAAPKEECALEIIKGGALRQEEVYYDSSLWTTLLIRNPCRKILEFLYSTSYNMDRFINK
A general note: Scintillation proximity formats need no separation of bound from free tracer.
As to `C[C@@H](c1ccc(-c2cnc(N3CC(F)C3)nc2)cc1)N1CC[C@](CC(C)(C)O)(c2ccccc2)OC1=O` [Example 32, 3-((S)-1-{4-[2-(3-fluoroazetidin-1-yl)pyrimidin-5-yl]phenyl}ethyl)-(S)-6-(2-hydroxy-2-methylpropyl)-6-phenyl-1,3-oxazinan-2-one], the IC50 was determined as 0.7 nM.
For the molecule `C[C@@H](c1ccc(-c2ccc(C3(C(N)=O)CC3)nc2)cc1)N1CC[C@@](CC2CC2)(CC(C)(C)O)OC1=O` [Example 59, 1-[5-(4-{(S)-1-[(S)-6-Cyclopropylmethyl-6-(2-hydroxy-2-methyl-propyl)-2-oxo-[1,3]oxazinan-3-yl]-ethyl}-phenyl)-pyridin-2-yl]-cyclopropanecarboxylic acid amide], the half-maximal inhibitory concentration (IC50) turned out to be 6.5 nM.
As for `C[C@@H](c1ccc(-c2csc(-n3ccccc3=O)n2)cc1)N1CC[C@](CC(C)(C)O)(c2ccccc2)OC1=O` [Example 37, (S)-6-(2-hydroxy-2-methylpropyl)-3-((S)-1-{4-[2-(2-oxopyridin-1(2H)-yl)thiazol-4-yl]phenyl}ethyl)-6-phenyl-1,3-oxazinan-2-one], the half-inhibitory concentration (IC50) came out at 0.5 nM.
To `C[C@@H](c1ccc(-c2ccc(=O)n(C3COC3)c2)cc1)N1CC[C@](CC(C)(C)O)(c2ccccc2)OC1=O` [Example 58, (S)-6-(2-Hydroxy-2-methyl-propyl)-3-{(S)-1-[4-(1-oxetan-3-yl-6-oxo-1,6-dihydro-pyridin-3-yl)-phenyl]-ethyl}-6-phenyl-[1,3]oxazinan-2-one] belongs 4.3 nM; to `C[C@@H](c1ccc(-c2ccn(C3COC3)c(=O)c2)cc1)N1CC[C@](CC(C)(C)O)(c2ccccc2)OC1=O` [Example 26, (S)-6-(2-hydroxy-2-methylpropyl)-3-((S)-1-{4-[1-(oxetan-3-yl)-2-oxo-1,2-dihydropyridin-4-yl]phenyl}ethyl)-6-phenyl-1,3-oxazinan-2-one], 5.2 nM; to `C[C@@H](c1ccc(-c2ccn(C3CNC3)c(=O)c2)cc1)N1CC[C@](CC(C)(C)O)(c2ccccc2)OC1=O` [Example 27, 3-((S)-1-{4-[1-(azetidin-3-yl)-2-oxo-1,2-dihydropyridin-4-yl]phenyl}ethyl)-(S)-6-(2-hydroxy-2-methylpropyl)-6-phenyl-1,3-oxazinan-2-one], 27.4 nM.
With `C[C@@H](c1ccc(-c2cccc(N3CCOCC3)n2)cc1)N1CC[C@](CC(C)(C)O)(c2ccccc2)OC1=O` [Example 40, (S)-6-(2-hydroxy-2-methylpropyl)-3-{(S)-1-[4-(6-morpholinopyridin-2-yl)phenyl]ethyl}-6-phenyl-1,3-oxazinan-2-one] the figure was 1.1 nM; with `C[C@@H](c1ccc(-c2ccc(N3CCC3)nn2)cc1)N1CC[C@](CC(C)(C)O)(c2ccccc2)OC1=O` [Example 31, 3-((S)-1-{4-[6-(azetidin-1-yl)pyridazin-3-yl]phenyl}ethyl)-(S)-6-(2-hydroxy-2-methylpropyl)-6-phenyl-1,3-oxazinan-2-one], 0.9 nM.
To `C[C@@H](c1ccc(-c2cccc(N3CCCCC3=O)n2)cc1)N1CC[C@](CC(C)(C)O)(c2ccccc2)OC1=O` [Example 39, (S)-6-(2-hydroxy-2-methylpropyl)-3-((S)-1-{4-[6-(2-oxopiperidin-1-yl)pyridin-2-yl]phenyl}ethyl)-6-phenyl-1,3-oxazinan-2-one] belongs 3.7 nM.
With `C[C@@H](c1ccc(-c2cccc(-n3ccccc3=O)n2)cc1)N1CC[C@](CC(C)(C)O)(c2ccccc2)OC1=O` [Example 41, (S)-6-(2-hydroxy-2-methylpropyl)-3-((S)-1-{4-[6-(2-oxopyridin-1 (2H)-yl)pyridin-2-yl]phenyl}ethyl)-6-phenyl-1,3-oxazinan-2-one], the IC50 stood at 2.3 nM.
For `C[C@@H](c1ccc(-c2cnc(-n3ccccc3=O)s2)cc1)N1CC[C@](CC(C)(C)O)(c2ccccc2)OC1=O` [Example 36, (S)-6-(2-hydroxy-2-methylpropyl)-3-((S)-1-{4-[2-(2-oxopyridin-1 (2H)-yl)thiazol-5-yl]phenyl}ethyl)-6-phenyl-1,3-oxazinan-2-one], the half-maximal inhibitory concentration (IC50) amounted to 0.8 nM.
For `C[C@@H](c1ccc(-c2ccc(C3(C(N)=O)CC3)nc2)cc1)N1CC[C@](CC(C)(C)O)(c2ccccc2)NC1=O` [Example 49, 1-[5-(4-{(S)-1-[(S)-4-(2-Hydroxy-2-methyl-propyl)-2-oxo-4-phenyl-tetrahydro-pyrimidin-1-yl]-ethyl}-phenyl)-pyridin-2-yl]-cyclopropanecarboxylic acid amide], the half-maximal inhibitory concentration (IC50) worked out at 1.5 nM.
To `C[C@@H](c1ccc(-c2cnc(N3CCCC3=O)nc2)cc1)N1CC[C@](CC(C)(C)O)(c2ccccc2)OC1=O` [Example 30, (S)-6-(2-hydroxy-2-methylpropyl)-3-((S)-1-{4-[2-(2-oxopyrrolidin-1-yl)pyrimidin-5-yl)phenyl]ethyl}-6-phenyl-1,3-oxazinan-2-one] belongs 3.2 nM; to `C[C@@H](c1ccc(-c2cnc(N3CC(O)C3)nc2)cc1)N1CC[C@](CC(C)(C)O)(c2ccccc2)OC1=O` [Example 35, (S)-6-(2-hydroxy-2-methylpropyl)-3-((S)-1-{4-[2-(3-hydroxyazetidin-1-yl)pyrimidin-5-yl]phenyl}ethyl)-6-phenyl-1,3-oxazinan-2-one], 2.8 nM; to `C[C@@H](c1ccc(-c2ccnc(N3CCOCC3)n2)cc1)N1CC[C@](CC(C)(C)O)(c2ccccc2)OC1=O` [Example 38, (S)-6-(2-hydroxy-2-methylpropyl)-3-{(S)-1-[4-(2-morpholinopyrimidin-4-yl)phenyl]ethyl}-6-phenyl-1,3-oxazinan-2-one], 2.3 nM.
Turning to `C[C@@H](c1ccc(-c2cnc(N3CCN(C)C3=O)nc2)cc1)N1CC[C@](CC(C)(C)O)(c2ccccc2)OC1=O` [Example 29, (S)-6-(2-hydroxy-2-methylpropyl)-3-((S)-1-{4-[2-(3-methyl-2-oxoimidazolidin-1-yl)pyrimidin-5-yl]phenyl}ethyl)-6-phenyl-1,3-oxazinan-2-one], the half-inhibitory concentration (IC50) is 9.8 nM.
With `C[C@@H](c1ccc(-c2cnc(N3CCNC3=O)nc2)cc1)N1CC[C@](CC(C)(C)O)(c2ccccc2)OC1=O` [Example 28, (S)-6-(2-hydroxy-2-methylpropyl)-3-((S)-1-{4-[2-(2-oxoimidazolidin-1-yl)pyrimidin-5-yl]phenyl}ethyl)-6-phenyl-1,3-oxazinan-2-one] the figure was 8.4 nM.
With `C[C@@H](c1ccc(-c2cnc(N3CCC3)nc2)cc1)N1CC[C@](CC(C)(C)O)(c2ccccc2)OC1=O` [Example 34, 3-((S)-1-{4-[2-(azetidin-1-yl)pyrimidin-5-yl)phenyl]ethyl}-(S)-6-(2-hydroxy-2-methylpropyl)-6-phenyl-1,3-oxazinan-2-one], the half-inhibitory concentration (IC50) came to 1 nM.
